Measured values as given in patent US4687864A, “5-fluoro-3-oxa-prostacyclin compounds” (G. D. Searle & Co., priority 1985, dated 1987).
pIC50: −log10 of the molar value.

Legend:
[1] = test system: ulcerogenic effect induced by certain non-steriodal and steroidal anti-inflammatory agents; details: rats, concomitant oral administration; cited from earlier work
[2] = test system: ADP-Induced platelet aggregation; test: Inhibition of ADP-induced platelet aggregation, in vitro (platelet rich plasma); type: cell-based; details: Rattus norvegicus, compound preincubated 1 minute, read-out: Results (IC50 (Molar))
Procedure: Inhibition of ADP-Induced platelet aggregation, in vitro.
Aggregation was determined using a Payton Dual Channel Aggregation Module. A Riker-Denshi recorder was used fo recording the aggregation curves.
The addition of ADP to platelet-rich plasma induces platelet aggregation.
After the PRP fraction was removed, the remainder was spun at 900×g for 15 mins. to obtain platelet poor plasma (PPP) (1800 RPM in IEC PR 6000). The number of platelets per ml PRP is determined by counting a 50 μl aliquot of PRP in a Coutter ZBI counter and channelyzer Model C-1000.
PRP is diluted with PPP 1:2 to obtain a count of approx. 25000 on the screen or 10^9 platelets/ml PRP to evaluate the anti-aggregating agent. The module was standardized with an aliquot of PPP and that of diluted PRP.
The aggregating agent used is ADP prepared as follows:
Prostacyclin is used as the standard of antiaggregatory activity for determining the potency of compounds tested. A 10^2 M solution (to give a starting concentration of 10^-4 M when 4 μL is added to 400 μL PRP) is diluted serially to obtain solutions with final concentrations of 10^-6, 10^-7, 10^-8, 10^-9 M.
Determine the dose of ADP which on a standard curve would be on the linear portion and allow reversal of the aggregation curve.
Determine the PGI2 standard curve of percentage inhibition of aggregation. Use saline in control cuvette to compare the extent of inhibition by PGI2 are represented by the depth of the aggregation curve. Allow the PRP to preincubate for approximately one minute prior to the addition of prostacyclin and another minute with PGI2 prior to the addition of ADP.
The % inhibition is plotted against prostacyclin dose on semilog paper.
The test compound is added to PRP and preincubated for 1 minute prior to ADP administration.

[3] = test system: platelet aggregation; details: background, cited from earlier work
[4] = physiological pH; cited from earlier work

CCCCC[C@H](O)/C=C/[C@H]1[C@H](O)CC(=O)[C@@H]1CCCCCCC(=O)O [PGE1]
ulcerogenic effect induced by anti-inflammatory agents [1]: inhibited

CCCCC[C@H](O)/C=C/[C@H]1[C@H](O)CC(=O)[C@@H]1C/C=C\CCCC(=O)O [PGE2]
ulcerogenic effect induced by anti-inflammatory agents [1]: inhibited

CCCCC[C@H](O)/C=C/[C@@H]1[C@H]2C=C(C(F)COCC(=O)OC(C)(C)C)O[C@H]2C[C@H]1O (relative stereo) [1,1-Dimethylethyl(3aS,3aα,6aα)[2-fluoro-2-[4,5,6,6aα-tetrahyro-5β-hydroxy-4α-(3S*-hydroxy-1E-octenyl)-3aS,3aαH,-cyclopenta[b]furanyl]ethoxy]acetate]
pIC50 [2]: 5.40

CC/C=C\C[C@H](O)/C=C/[C@H]1[C@H](O)CC(=O)[C@@H]1C/C=C\CCCC(=O)O [PGE3]
ulcerogenic effect induced by anti-inflammatory agents [1]: inhibited

CCCCC[C@H](O)CC[C@H]1[C@H](O)CC(=O)[C@@H]1CCCCCCC(=O)O [13, 14-dihydro-PGE1]
ulcerogenic effect induced by anti-inflammatory agents [1]: inhibited

CCCCC[C@H](O)/C=C/[C@@H]1[C@H]2C/C(=C/CCCC(=O)O)O[C@H]2C[C@H]1O [Prostacyclin, (5Z)-9-deoxy-6,9α-epoxy-Δ^5 -PGF1]
duration of antiplatelet aggregation effect [3]: short lived | hypotensive effects [3]: often affords unwanted hypotensive effects | doses required for platelet aggregation inhibiting action and antihypertensive action ([3]; selectivity of action): almost equal to each other | half period of its activity [4]: only about several minutes | pIC50 [2]: 8.22

CCCCC[C@H](O)/C=C/[C@@H]1[C@H]2C/C(=C/COCC(=O)OC(C)(C)C)O[C@H]2C[C@H]1O (relative stereo) [3-oxa prostacyclin Tert-butyl ester, 1,1-Dimethylethyl(3aS,3aα,6aα)[2-[hexahydro-5β-hydroxy-4α-(3S*-hydroxy-1E-octenyl)-2H-cyclopenta-[b]furan-2Z-ylidene]ethoxy]acetate]
pIC50 [2]: 6.00
